Where two headings read alike, the source gives them in different places.
Experiments:
CYP2D6 = biological target: T1, CYP2D6 (Homo sapiens, UniProt P10635); assay: CYP450 enzyme inhibition, human liver microsomes, CYP2D6; format: in vitro ADME
T1 construct: incubated with human liver microsomes and test compounds of different concentrations; from tissue; host or cells: human liver microsomes
Procedure: (§1) The purpose of this study was to evaluate the effect of the test compound on the activity of five isoenzymes (CYP1A2, CYP2C9, CYP2C19, CYP2D6 and CYP3A4) of human liver microsomal cytochrome P450 (CYP) by using an in vitro testing system. The specific probe substrates of CYP450 isoenzymes were incubated with human liver microsomes and test compounds of different concentrations, and reduced nicotinamide adenine dinucleotide phosphate (NADPH) was added to initiate the reaction. After the completion of the reaction, the sample was treated and liquid chromatography-tandem mass spectrometry (LC-MS/MS) was used to quantitatively detect metabolites produced by specific substrates, changes in CYP enzyme activity were determined, and IC50 value was calculated to evaluate the inhibitory potential of the test compound on each CYP enzyme subtype.

smooth muscle myosin S1 = biological target: T2, smooth muscle myosin S1 (Gallus gallus, UniProt P10587); assay: Inhibition of hydrolysis of ATP by smooth muscle myosin S1 fragments; format: biochemical; details: 100 μM compound
T2 construct: purchased Cytoskeleton #CS-MYS05
Procedure: The purpose of this test was to evaluate the ability of compounds to inhibit the hydrolysis of ATP by smooth muscle myosin Si fragments. The determination method was as follows: • 1. Solution formulation • F-actin polymer: Cardiac Actin powder (#CS-AD99, Cytoskeleton) was dissolved in a buffer (5 mM Pipes-KOH solution, PH=7.0, containing 100 μM ATP and 500 μM DTT) to form a 2 mg/mL solution and the solution was left at room temperature for 30 min; then 2 mM MgCl2 and 2 mM EGTA were added and the obtained system was left at room temperature for 40 min; • Smooth muscle SI fragment (#CS-MYS05, Cytoskeleton) was diluted with a pre-cooled PM12 buffer containing 1 mM DTT (12 mM Pipes-KOH solution, PH=7.0, containing 2 mM MgCl2) to form a 0.7 mg/mL solution; • ATP (#BSA04-001, Cytoskeleton) was diluted to 5 mM working solution with 15 mM Tris-HCL (PH=7.5); • 2. […] Experimental steps: • adding 10 μL of compound working solution+6 μL of F-actin polymer+4 μL of Smooth muscle Si fragment solution to the compound wells; • adding 10 μL of PM12 buffer containing DMSO+6 μL of F-actin polymer+4 μL of Smooth muscle S1 fragment solution to positive control wells; • adding 10 μL of PM12 buffer containing DMSO+6 μL of F-actin polymer+4 μL of PM12 buffer to negative control wells; • adding […] of 5 mM ATP working solution to all test wells to start the reaction, gently mixing and incubating at 37° C. for 20 min; • after the reaction was completed, taking 6 μLL of reaction liquid, adding 24 μL of PM12 buffer for 5-fold dilution, then detecting the content of the product Pi with a phosphate kit (#BK054, Cytoskeleton); • adding a standard according to the instructions, adding 70 μL of CytoPhos Reagent (#BK054, Cytoskeleton) to all wells and incubating at room temperature for 10 min before detection. • 4. Detection: • the OD value of each well was detected at 650 nm. The standard curve was fitted according to Pi standard concentration and OD value, and the Pi concentration of each test well was obtained. Inhibition (%)=(positive control well−test well)/positive control well*100%.

CYP1A2 = biological target: T3, CYP1A2 (Homo sapiens, UniProt P05177); assay: CYP450 enzyme inhibition, human liver microsomes, CYP1A2; format: in vitro ADME
T3 construct: incubated with human liver microsomes and test compounds of different concentrations; from tissue; host or cells: human liver microsomes
T3 sequence (P05177 1-516): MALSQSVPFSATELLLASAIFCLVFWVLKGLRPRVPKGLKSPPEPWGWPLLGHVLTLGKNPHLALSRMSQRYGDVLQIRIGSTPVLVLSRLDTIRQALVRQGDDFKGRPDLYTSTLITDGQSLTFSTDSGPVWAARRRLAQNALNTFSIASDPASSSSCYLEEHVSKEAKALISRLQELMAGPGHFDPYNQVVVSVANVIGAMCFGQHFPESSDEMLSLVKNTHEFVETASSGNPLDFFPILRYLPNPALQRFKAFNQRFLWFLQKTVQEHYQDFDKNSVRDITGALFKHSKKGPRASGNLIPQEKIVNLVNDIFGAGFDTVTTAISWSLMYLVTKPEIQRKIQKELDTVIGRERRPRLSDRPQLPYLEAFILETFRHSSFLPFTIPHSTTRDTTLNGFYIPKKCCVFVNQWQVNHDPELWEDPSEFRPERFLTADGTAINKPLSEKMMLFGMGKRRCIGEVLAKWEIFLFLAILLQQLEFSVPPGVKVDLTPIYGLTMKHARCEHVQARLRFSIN
Procedure: as §1

CYP2C9 = biological target: T4, CYP2C9 (Homo sapiens, UniProt P11712); assay: CYP450 enzyme inhibition, human liver microsomes, CYP2C9; format: in vitro ADME
T4 construct: incubated with human liver microsomes and test compounds of different concentrations; from tissue; host or cells: human liver microsomes
Procedure: as §1

CYP3A4 = biological target: T5, CYP3A4 (Homo sapiens, UniProt P08684); assay: CYP450 enzyme inhibition, human liver microsomes, CYP3A4; format: in vitro ADME
T5 construct: incubated with human liver microsomes and test compounds of different concentrations; from tissue; host or cells: human liver microsomes
Procedure: as §1

CYP2C19 = biological target: T6, CYP2C19 (Homo sapiens, UniProt P33261); assay: CYP450 enzyme inhibition, human liver microsomes, CYP2C19; format: in vitro ADME
T6 construct: incubated with human liver microsomes and test compounds of different concentrations; from tissue; host or cells: human liver microsomes
Procedure: as §1

[1] = system: rabbit skeletal muscle myosin; assay: Inhibition of hydrolysis of ATP by rabbit skeletal muscle myosin; format: biochemical
Procedure: The purpose of this test was to evaluate the ability of compounds to inhibit the hydrolysis of ATP by rabbit skeletal muscle myosin. The determination method was as follows:
• Preformed F-actin filaments (#AKF99-B, Cytoskeleton) were diluted to 1 mg/mL with Reaction buffer (25 mM Tris-HCL, pH 7.5+35 mM KCl+0.1 mM EGTA+1 mM MgCl2); • Rabbit myosin (#MYO2-A, Cytoskeleton) was diluted to 0.1 mg/mL with Resuspension buffer (15 mM Tris-HCL, PH7.5+0.2 M KCl+1 mM MgCl2); • ATP (#BSA04-001, Cytoskeleton) was diluted to 3 mM working solution with 15 mM Tris-HCL (PH=7.5);
• adding 13 μL reaction buffer+12 μL F-actin to actin control wells; • adding 10 μL reaction buffer+12 μL F-actin+3 μL myosin II to positive control wells; • adding 10 μL of compound working solution+12 μL of F-actin+3 μL of myosin II to the compound wells; • adding 5 μL of ATP working solution to all test wells to start the reaction, and simultaneously adding a sample to the Pi standard wells according to the instruction (#BK054, Cytoskeleton); • gently mixing and accurately incubating at 37° C. for 60 min; • adding 70 μL of CytoPhos Reagent (#BK054, Cytoskeleton) to each well and incubating for 10 min to stop the reaction.
• the OD value of each well was detected at 650 nm using the endpoint method. The standard curve was fitted according to Pi concentration and OD value, and the Pi concentration of each test well was obtained. Inhibition (%)=(Pi positive control well-Pi test well)/Pi positive control well*100%. The Inhibition %-[…] curve was fitted with Graphpad Prism 8 software, and IC50 was calculated.

[2] = Pharmacokinetic experiment in mouse muscle tissue (tibialis anterior / plasma); format: in vivo, C57 mice; details: male, C57, tibialis anterior muscle / plasma, oral, intragastric 10 mg/kg, read-out: Ratio = Tibialis anterior Conc./Plasma Conc.
Procedure: 1. Experimental animals: Male C57 mice, 22-25 g, 6 mice/compound. Purchased from Chengdu Ddossy Experimental Animals Co., Ltd.
2. Experimental design: On the day of the experiment, C57 mice were randomly grouped according to their body weight. The animals were fasted with water available for 12 to 14 h one day before the administration and were fed 4 h after the administration. Administration was performed as per Table 10.1.

cardiac myosin SII = biological target: T7, cardiac myosin SII (Bos taurus, UniProt Q9BE39); assay: Inhibition of hydrolysis of ATP by cardiac myosin SII; format: biochemical; details: 100 μM compound
T7 construct: purchased Cytoskeleton #MYO3-A
Procedure: The purpose of this test was to evaluate the ability of compounds to inhibit the hydrolysis of ATP by cardiac myosin SII. The determination method was as follows: • 1. Solution formulation: • Preformed F-actin filaments (#AKF99-B, Cytoskeleton) were diluted to 1 mg/mL with Reaction buffer (15 mM Tris-HCL. PH7.5+10 mM KCl+0.1 mM EGTA+2 mM MgCl2); • Cardiac Muscle myosin (#MYO3-A, Cytoskeleton) was diluted to 1 mg/mL with Resuspension buffer (15 mM Tris-HCL, PH7.5+0.2M KCl+1 mM MgCl2); • ATP (#BSA04-001, Cytoskeleton) was diluted to 3 mM working solution with 15 mM Tris-HCL (PH=7.5); • 2. Formulation of working solution of compounds: the final compound concentration was 100 μM • 3. Experimental steps: • adding 10 μL of compound working solution+12 μL of Preformed F-actin filaments+3 μL of Cardiac Muscle myosin to the compound wells; • adding 10 μL of reaction buffer containing DMSO+12 μL Preformed F-actin filaments +3 μL Cardiac Muscle myosin to positive control wells; • adding 10 μL of reaction buffer containing DMSO+12 μL Preformed F-actin filaments +3 μL Resuspension buffer to negative control wells; • adding 5 μL of 3 mM ATP working solution to all test wells to start the reaction, gently mixing and incubating at 37° C. for 2 h; • after the reaction was completed, taking 6 μL of reaction liquid, adding 24 μL of reaction buffer for 5-fold dilution, then detecting the content of the product Pi with a phosphate kit (#BK054, Cytoskeleton); • adding a sample to Pi standard wells according to the instructions; • adding 70 μL of CytoPhos Reagent (#BK054, Cytoskeleton) to each well and incubating at room temperature for 10 min before detection. • 4. Detection: • the OD value of each well was detected at 650 nm. The standard curve was fitted according to Pi standard concentration and OD value, and the Pi concentration of each test well was obtained. Inhibition (%)=(positive control well−test well)/positive control well*100%.

[3] = inhibition of hydrolysis of ATP, class symbols, read-out: Rabbit skeletal muscle myosin (IC50)
[4] = read-out: IC50 for inhibition of hydrolysis of ATP by rabbit skeletal muscle myosin

T5 sequence (P08684 whole entry): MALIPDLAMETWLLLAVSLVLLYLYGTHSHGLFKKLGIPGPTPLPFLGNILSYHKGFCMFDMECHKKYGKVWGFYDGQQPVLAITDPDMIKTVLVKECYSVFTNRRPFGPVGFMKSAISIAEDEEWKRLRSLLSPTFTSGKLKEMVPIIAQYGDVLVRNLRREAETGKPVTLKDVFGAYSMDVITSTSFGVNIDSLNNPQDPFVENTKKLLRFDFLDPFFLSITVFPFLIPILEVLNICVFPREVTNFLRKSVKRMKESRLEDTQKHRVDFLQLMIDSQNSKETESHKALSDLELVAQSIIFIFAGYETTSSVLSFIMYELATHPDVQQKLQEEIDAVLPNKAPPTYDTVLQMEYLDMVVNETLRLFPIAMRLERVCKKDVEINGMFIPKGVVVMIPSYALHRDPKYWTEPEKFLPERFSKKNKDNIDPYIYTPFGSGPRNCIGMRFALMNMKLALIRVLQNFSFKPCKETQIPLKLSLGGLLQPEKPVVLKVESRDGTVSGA
T4 sequence (P11712 whole entry): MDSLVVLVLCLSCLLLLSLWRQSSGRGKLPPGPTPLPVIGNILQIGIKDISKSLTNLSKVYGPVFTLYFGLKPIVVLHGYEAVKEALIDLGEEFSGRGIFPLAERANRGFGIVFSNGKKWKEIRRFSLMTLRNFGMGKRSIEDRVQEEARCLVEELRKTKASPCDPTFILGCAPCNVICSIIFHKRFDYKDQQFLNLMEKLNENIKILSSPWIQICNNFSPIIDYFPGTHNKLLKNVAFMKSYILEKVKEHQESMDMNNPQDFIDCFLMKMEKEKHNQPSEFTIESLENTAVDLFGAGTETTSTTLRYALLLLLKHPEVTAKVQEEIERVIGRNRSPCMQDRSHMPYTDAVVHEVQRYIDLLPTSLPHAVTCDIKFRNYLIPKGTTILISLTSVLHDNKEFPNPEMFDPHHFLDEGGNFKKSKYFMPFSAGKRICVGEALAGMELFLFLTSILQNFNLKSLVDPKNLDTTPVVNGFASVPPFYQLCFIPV
T2 sequence (P10587 84-789 limits assumed): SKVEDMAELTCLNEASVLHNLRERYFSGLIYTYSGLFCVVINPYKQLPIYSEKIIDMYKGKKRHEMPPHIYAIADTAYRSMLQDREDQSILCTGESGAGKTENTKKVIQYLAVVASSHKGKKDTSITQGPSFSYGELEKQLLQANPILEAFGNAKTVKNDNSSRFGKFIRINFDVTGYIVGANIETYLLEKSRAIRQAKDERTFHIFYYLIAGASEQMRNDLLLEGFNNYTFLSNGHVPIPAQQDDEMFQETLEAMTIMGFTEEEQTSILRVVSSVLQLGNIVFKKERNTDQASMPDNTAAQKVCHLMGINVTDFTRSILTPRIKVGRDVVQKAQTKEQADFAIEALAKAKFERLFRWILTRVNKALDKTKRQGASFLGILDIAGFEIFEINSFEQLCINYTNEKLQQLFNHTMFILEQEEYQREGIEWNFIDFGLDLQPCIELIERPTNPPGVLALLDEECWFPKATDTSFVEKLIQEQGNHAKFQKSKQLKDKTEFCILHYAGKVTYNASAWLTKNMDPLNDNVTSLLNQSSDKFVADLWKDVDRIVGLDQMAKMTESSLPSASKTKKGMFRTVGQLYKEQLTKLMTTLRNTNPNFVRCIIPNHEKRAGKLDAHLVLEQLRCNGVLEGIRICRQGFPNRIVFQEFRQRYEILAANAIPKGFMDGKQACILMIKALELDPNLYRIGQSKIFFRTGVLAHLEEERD
T2 sequence (P02607 whole entry partner, the tested form may be a part): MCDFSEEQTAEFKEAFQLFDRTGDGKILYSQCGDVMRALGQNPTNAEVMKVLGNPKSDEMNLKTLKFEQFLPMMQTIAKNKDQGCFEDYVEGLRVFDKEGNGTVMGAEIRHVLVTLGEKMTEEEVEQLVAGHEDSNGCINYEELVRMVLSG
T6 sequence (P33261 whole entry): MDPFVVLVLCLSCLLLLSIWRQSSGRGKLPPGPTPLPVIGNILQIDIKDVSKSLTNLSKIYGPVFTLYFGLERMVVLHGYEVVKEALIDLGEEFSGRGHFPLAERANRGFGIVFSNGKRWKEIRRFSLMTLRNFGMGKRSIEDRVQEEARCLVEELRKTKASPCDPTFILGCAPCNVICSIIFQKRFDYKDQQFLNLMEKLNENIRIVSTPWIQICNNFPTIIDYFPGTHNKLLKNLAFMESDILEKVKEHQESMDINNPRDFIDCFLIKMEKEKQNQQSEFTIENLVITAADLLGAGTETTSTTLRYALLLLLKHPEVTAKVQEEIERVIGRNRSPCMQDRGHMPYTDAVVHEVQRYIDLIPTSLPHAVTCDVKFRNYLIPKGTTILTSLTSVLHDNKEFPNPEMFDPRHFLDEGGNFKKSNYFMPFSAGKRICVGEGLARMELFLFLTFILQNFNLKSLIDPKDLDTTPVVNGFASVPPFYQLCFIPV
T1 sequence (P10635 whole entry): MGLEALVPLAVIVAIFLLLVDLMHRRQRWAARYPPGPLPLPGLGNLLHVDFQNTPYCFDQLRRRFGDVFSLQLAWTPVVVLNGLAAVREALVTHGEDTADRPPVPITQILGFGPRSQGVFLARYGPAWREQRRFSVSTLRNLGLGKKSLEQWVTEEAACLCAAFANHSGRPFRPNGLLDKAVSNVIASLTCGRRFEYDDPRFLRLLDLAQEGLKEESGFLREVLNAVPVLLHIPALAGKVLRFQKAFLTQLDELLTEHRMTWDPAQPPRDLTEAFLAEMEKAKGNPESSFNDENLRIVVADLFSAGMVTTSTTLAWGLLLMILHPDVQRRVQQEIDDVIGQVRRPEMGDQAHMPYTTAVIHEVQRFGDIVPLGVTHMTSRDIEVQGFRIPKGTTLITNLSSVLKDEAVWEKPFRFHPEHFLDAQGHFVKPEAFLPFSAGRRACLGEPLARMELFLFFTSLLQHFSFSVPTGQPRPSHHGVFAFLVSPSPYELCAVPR

SMILES	IC50 (CYP2D6) [µM]	inhibition at 100 µM (smooth muscle myosin S1) [%]	IC50 (CYP1A2) [µM]	IC50 (CYP2C9) [µM]	IC50 (CYP3A4) [µM]	IC50 (CYP2C19) [µM]	IC50 [1, 3] [nM]	IC50 [1, 4] [nM]	Kp at 6 h [2]	Kp at 24 h [2]	inhibition at 100 µM (cardiac myosin SII) [%]	Cardiac myosin SII (Inhibition @ 100 μM) (cardiac myosin SII; 100 µM) [%]	Smooth muscle myosin S1 (Inhibition @ 100 μM) (smooth muscle myosin S1; 100 µM) [%]
O=C1Cc2cc(Cn3nc(-c4cnc(OCC(F)(F)F)nc4)ccc3=O)ccc21 [Compound 72]	> 30	23.6	> 30	> 30	> 30	> 30	< 2500	560					
O=c1ccc(-c2cnc(O[C@H]3CCOC3)nc2)nn1Cc1ccc2c(c1)CC2 [Compound 106]	> 30		> 30	> 30	> 30	> 30	< 2500	200					
CC(F)(F)COc1ncc(-c2ccc(=O)n(Cc3ccc4c(c3)C(=O)CC4)n2)cn1 [Compound 139]		6					< 2500	600	63.5	85.5	6		
O=C1CCc2c(F)cc(Cn3nc(-c4cnc(OCC(F)(F)F)nc4)ccc3=O)cc21 [Compound 153]	> 30	-12	> 30	> 30	> 30	> 30	< 2500	500	73.3	96.7			

More lines, now with the values ahead:

IC50 (CYP2D6) [µM]	inhibition at 100 µM (smooth muscle myosin S1) [%]	IC50 (CYP1A2) [µM]	IC50 (CYP2C9) [µM]	IC50 (CYP3A4) [µM]	IC50 (CYP2C19) [µM]	IC50 [1, 3] [nM]	IC50 [1, 4] [nM]	Kp at 6 h [2]	Kp at 24 h [2]	inhibition at 100 µM (cardiac myosin SII) [%]	Cardiac myosin SII (Inhibition @ 100 μM) (cardiac myosin SII; 100 µM) [%]	Smooth muscle myosin S1 (Inhibition @ 100 μM) (smooth muscle myosin S1; 100 µM) [%]	SMILES
						< 2500	400				7	5	O=c1ccc(-c2cnc(OCC(F)(F)F)nc2)nn1Cc1ccc2c(c1)C1CC1C2 (stereo not drawn) [Compound 159]
> 30	14	> 30	> 30	> 30	> 30	< 2500							O=C1CCc2c(F)cc(Cn3nc(-c4cnc(O[C@@H]5CCOC5)nc4)ccc3=O)cc21 [Compound 163]
